Tested on: 388556-164-R-J1-PDC complex spheroid viability
Experiment: Anticancer human tumor 388556-164-R-J1-PDC patient-derived colon adenocarcinoma cell line growth inhibition [RAS]
Details: for IC50: curve of first compound; for viability, T/C: stronger effect = lower value
Description: RAS pathway inhibitors in Combinations in Complex Spheroids
A high-throughput screen of multi-cell type tumor spheroids was designed to identify active combinations of RAS pathway inhibitors and targeted small molecules. Complex spheroids include a stromal component modeled by human endothelial cells (HUVEC) and fibroblasts modeled by human mesenchymal stem cells (MSCs). The concentration ranges selected for each drug and investigational agent were based upon clinically achievable concentrations if the clinical Cmax of the agent was known.
Compounds. The drugs and investigational agents: abemaciclib (NSC768073), cobimetinib (NSC768068), divarasib (GDC6063, NSC841802), docetaxel (NSC628503), GDC-1971 (RLY-1971, NSC841576), gemcitabine (NSC613327), inavolisib (NSC800729), ipatasertib (NSC767898), KB-0742 (NSC834161), MRTX-1133 (NSC836407), osimertinib (NSC779217), RMC-4630 (NSC839698), RMC-6236 (NSC851965), RMC-6291 (NSC852671), Ro-3306 (NSC812927), sapanisertib (NSC764658), SN-38 (NSC673596), staurosporine (NSC755774), SY5609 (NSC837396), and tovorafenib (DAY101, NSC766906), were obtained from the National Cancer Institute (NCI) Developmental Therapeutics Program Chemical Repository. The FDA-approved anticancer drug set is available from the NCI Developmental Therapeutics Program. […] The stock solutions were prepared in dimethyl sulfoxide (DMSO, Sigma-Aldrich, St. Louis, MO, cat. D2650) at 800-fold the tested concentration and stored at -70 degrees C prior to their use. All drugs and investigational agents were tested over a range starting from a high concentration at or near the clinical Cmax and decreasing in half-log increments. If the clinical Cmax for an agent had not been determined, the highest concentration tested was 10 microM.
Cell Culture. All cells were maintained in an incubator at 37 degrees C and 5% CO2 with 95% humidity. The PDC lines were cultured according to standard operating procedures established by the NCI PDMR. All PDCs were thawed and cultured in Matrigel-coated flasks prepared with a working solution of 1X Ham's F-12 nutrient mix, without supplementation (Invitrogen, Waltham, MA, cat. 11765054), 100 U/mL penicillin-streptomycin (Invitrogen, cat. 15140122), and 2.5% Matrigel (Corning Inc., Corning, NY, cat. 354248) for the first three passages. The 362531-283-R-J2-PDC and 782815-120-R-J1-PDC lines were cultured in 6C/Colon 1B media, which includes advanced DMEM/F-12 (Thermo Fisher Scientific, cat. 12634028), 10 mM HEPES (Thermo Fisher Scientific, cat. 15630080), 1X GlutaMAX supplement (Thermo Fisher Scientific, cat. 35050061), 0.1 mg/mL primocin (InvivoGen, San Diego, CA, cat. ant-pm-2), 10% defined fetal bovine serum, heat inactivated (HyClone Laboratories Inc., Logan, UT, cat. SH30070.03HI), 50% L-WRN conditioned media (ATCC, cat. CRL-3276), 1.25 mM N-Acetyl-L-cysteine (Sigma-Aldrich, cat. A9165), 10 mM nicotinamide (Sigma-Aldrich, cat. N0636), 1X B-27 supplement (Thermo Fisher Scientific, cat. 17504044), 1X N-2 supplement (Thermo Fisher Scientific, cat. 17502048), 50 ng/mL human EGF (Thermo Fisher Scientific, cat. PHG0311), and 10 microM Y-27632 dihydrochloride (Tocris Bioscience, cat. 1254). The K12877-001-R-J1-PDC line was cultured in 6I media, which includes all 6C/Colon 1B media plus 10 ng/mL human FGF-10 (PeproTech, cat. 100-26), 1 ng/mL human FGF-2 (PeproTech, cat. 100-18B), 1 µM prostaglandin E2 (Tocris Bioscience, cat. 2296), […] hydrocortisone (Sigma-Aldrich, cat. H4001), and […] bovine insulin (Sigma-Aldrich, cat. I6634). The K86415-001-R-J1-PDC line was cultured in 6D media, which includes all 6C/Colon 1B media components minus the L-WRN conditioned media. The 485176-168-R4-J1-PDC was cultured in PANC media, which includes all 6C/Colon 1B media plus 100 ng/mL human FGF-10 (PeproTech, cat. 100-26), 500 nM SB-431542 (Selleckchem, cat. S1067), and 10 nM gastrin (Tocris Bioscience, cat. 3006). […]
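Also: spheroids exposed to compound for 7 days before readout.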
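For viability, T/C in this document: 100% = DMSO vehicle control luminescence.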

## CC1(C)CCC(Nc2ncc(C(F)(F)F)c(-c3c[nH]c4c(P(C)(C)=O)c(C#N)ccc34)n2)CN1 (configuration not stated) + C#Cc1c(F)ccc2cc(O)cc(-c3ncc4c(N5CC6CCC(C5)N6)nc(OCC56CCCN5CC(F)C6)nc4c3F)c12
Second compound 0.0316 µM
  IC50: > 300 nM
Second compound 0.1 µM
  IC50: > 300 nM
Second compound 0.316 µM
  IC50: > 300 nM
Second compound 1 µM
  IC50: > 300 nM
Second compound 3.16 µM
  IC50: > 300 nM
Second compound 10 µM
  IC50: > 300 nM
Second compound 0.0316 µM, first compound 0.000949 µM
  viability, T/C: 111%
Second compound 0.0316 µM, first compound 0.003 µM
  viability, T/C: 110%
Second compound 0.0316 µM, first compound 0.00949 µM
  viability, T/C: 112%
Second compound 0.0316 µM, first compound 0.03 µM
  viability, T/C: 94.9%
Second compound 0.0316 µM, first compound 0.0949 µM
  viability, T/C: 118%
Second compound 0.0316 µM, first compound 0.3 µM
  viability, T/C: 97.3%
Second compound 0.1 µM, first compound 0.000949 µM
  viability, T/C: 110%
Second compound 0.1 µM, first compound 0.003 µM
  viability, T/C: 112%
Second compound 0.1 µM, first compound 0.00949 µM
  viability, T/C: 110%
Second compound 0.1 µM, first compound 0.03 µM
  viability, T/C: 101%
Second compound 0.1 µM, first compound 0.0949 µM
  viability, T/C: 116%
Second compound 0.1 µM, first compound 0.3 µM
  viability, T/C: 92.1%
Second compound 0.316 µM, first compound 0.000949 µM
  viability, T/C: 100%
Second compound 0.316 µM, first compound 0.003 µM
  viability, T/C: 100%
Second compound 0.316 µM, first compound 0.00949 µM
  viability, T/C: 91.1%
Second compound 0.316 µM, first compound 0.03 µM
  viability, T/C: 114%
Second compound 0.316 µM, first compound 0.0949 µM
  viability, T/C: 115%
Second compound 0.316 µM, first compound 0.3 µM
  viability, T/C: 92.9%
Second compound 1 µM, first compound 0.000949 µM
  viability, T/C: 97.1%
Second compound 1 µM, first compound 0.003 µM
  viability, T/C: 92%
Second compound 1 µM, first compound 0.00949 µM
  viability, T/C: 80.7%
Second compound 1 µM, first compound 0.03 µM
  viability, T/C: 96.7%
Second compound 1 µM, first compound 0.0949 µM
  viability, T/C: 100%
Second compound 1 µM, first compound 0.3 µM
  viability, T/C: 84.2%
Second compound 3.16 µM, first compound 0.000949 µM
  viability, T/C: 83%
Second compound 3.16 µM, first compound 0.003 µM
  viability, T/C: 78.2%
Second compound 3.16 µM, first compound 0.00949 µM
  viability, T/C: 99.8%
Second compound 3.16 µM, first compound 0.03 µM
  viability, T/C: 99.5%
Second compound 3.16 µM, first compound 0.0949 µM
  viability, T/C: 96.3%
Second compound 3.16 µM, first compound 0.3 µM
  viability, T/C: 77.8%
Second compound 10 µM, first compound 0.000949 µM
  viability, T/C: 70.7%
Second compound 10 µM, first compound 0.003 µM
  viability, T/C: 65.1%
Second compound 10 µM, first compound 0.00949 µM
  viability, T/C: 76.6%
Second compound 10 µM, first compound 0.03 µM
  viability, T/C: 81%
Second compound 10 µM, first compound 0.0949 µM
  viability, T/C: 62.7%
Second compound 10 µM, first compound 0.3 µM
  viability, T/C: 63.4%
